This is an account of results in patent publication US11873298B2, “Compounds and uses thereof” (JANSSEN PHARMACEUTICA NV, priority 2017, dated 2024).

Some results are limits rather than exact numbers.

One assay has as its target T1, SCD5 (Homo sapiens, UniProt Q86SK9).
T1 construct: host or cells: S. cerevisiae ole1Δ strain (W303 pdr1Δ pdr3Δ background), plasmid pRS316 with TDH3 promoter and CYC1 terminator
T1 sequence (Q86SK9 1-330): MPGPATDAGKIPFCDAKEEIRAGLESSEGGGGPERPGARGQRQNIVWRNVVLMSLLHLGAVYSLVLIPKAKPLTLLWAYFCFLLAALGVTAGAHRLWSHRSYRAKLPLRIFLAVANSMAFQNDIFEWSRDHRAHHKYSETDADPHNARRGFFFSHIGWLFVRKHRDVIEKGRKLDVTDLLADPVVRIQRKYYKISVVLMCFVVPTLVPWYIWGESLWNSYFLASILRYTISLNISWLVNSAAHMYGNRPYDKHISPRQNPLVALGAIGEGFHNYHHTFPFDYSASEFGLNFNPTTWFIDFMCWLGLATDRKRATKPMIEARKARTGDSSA
The experiment in a line: Growth inhibition of humanized yeast strain expressing SCD5 as sole desaturase. Type of assay: cell-based. A digest of the protocol:
(§1)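 OD600 growth read-out. ole1Δ yeast, pdr1Δ pdr3Δ, with Ole1/SCD1/SCD5 on a plasmid; SX-Ura media throughout; 2× cell density 0.02 in CSM-Galactose; DMSO compound dilutions; humidified 30° C.; Ole1 stopped at 24 h, SCD1/SCD5 at 40 h.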

In another assay the target is T2, SCD1 (Homo sapiens, UniProt O00767).
T2 construct: host or cells: S. cerevisiae ole1Δ strain (W303 pdr1Δ pdr3Δ background), plasmid pRS316 with TDH3 promoter and CYC1 terminator
T2 sequence (O00767 1-359): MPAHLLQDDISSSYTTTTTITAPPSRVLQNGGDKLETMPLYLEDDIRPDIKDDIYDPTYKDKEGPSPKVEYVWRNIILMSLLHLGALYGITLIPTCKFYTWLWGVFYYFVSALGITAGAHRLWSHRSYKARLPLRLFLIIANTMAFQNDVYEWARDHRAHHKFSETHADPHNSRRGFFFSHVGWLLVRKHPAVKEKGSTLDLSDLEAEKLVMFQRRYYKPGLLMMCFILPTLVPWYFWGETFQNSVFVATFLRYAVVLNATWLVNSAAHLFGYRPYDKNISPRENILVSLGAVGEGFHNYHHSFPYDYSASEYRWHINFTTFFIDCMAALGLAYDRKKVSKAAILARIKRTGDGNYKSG
In words: Growth inhibition of humanized yeast strain expressing SCD1 as sole desaturase. Type of assay: cell-based. In outline:
as §1

The mark [1] stands for this setting: growth inhibition of humanized yeast strain expressing human SCD5.
Where [2] appears, read: growth inhibition of humanized yeast strain expressing human SCD1.

As usually defined, the IC50 is the concentration that gives 50% inhibition. For `CC(C)(C)OC(=O)N1CCC(c2nsc(-c3ccc4cnn(C5COC5)c4c3)n2)CC1` [Compound 780], the IC50 against SCD5 (humanized yeast strain, 40 h) is 0.027 µM; at SCD1 (humanized yeast strain, 40 h), more than 45 µM.

For the molecule `O=C(N1CCC(c2noc(-c3ccc4cnn(C5COC5)c4c3)n2)CC1)C12CC(F)(C1)C2` [Compound 895], the IC50 was 0.01 µM against SCD5 (humanized yeast strain, 40 h) and more than 45 µM on SCD1 (humanized yeast strain, 40 h).

`CC(C)(C)OC(=O)N1CCC(c2noc(-c3ccc4cnn(C5CNC5)c4c3)n2)CC1` [Compound 918]: the IC50 against SCD5 (humanized yeast strain, 40 h) was 0.8 µM; on SCD1 (humanized yeast strain, 40 h), more than 45 µM.

For `O=C(N1CCC(c2noc(-c3ccc4oc(=O)n(C5COC5)c4c3)n2)CC1)C1(F)CC1` [Compound 1131], the IC50 on SCD5 (humanized yeast strain, 40 h) is 0.207 µM; at SCD1 (humanized yeast strain, 40 h), more than 45 µM.

With `CC(C)n1ncc2ccc(-c3nc(N4CCC5(CCO5)CC4)no3)cc21` [Compound 762], the IC50 on SCD5 (humanized yeast strain, 40 h) is 5.25 µM; against SCD1 (humanized yeast strain, 40 h), more than 45 µM.

For the molecule `CC(C)n1ncc2ccc(-c3noc(C4CCN(C(=O)CNC(=O)c5cccc(Cl)c5)CC4(F)F)n3)cc21` (centres unmarked) [Compound 522], the IC50 against SCD5 (humanized yeast strain expressing SCD5) and on SCD1 (humanized yeast strain expressing SCD1) was more than 45 µM each time.

For the molecule `CC(C)(C)OC(=O)N1CCC(c2nc(-c3cccc(C4CCCOC4)c3)no2)CC1` (centres unmarked) [Compound 824], the IC50 is 0.932 µM against SCD5 (humanized yeast strain, 40 h) and more than 45 µM against SCD1 (humanized yeast strain, 40 h).

Consider `O=C(OC1CCC1)N1CCC(c2nnc(-c3ccc4cnn(C5CCOC5)c4c3)o2)CC1` (centres unmarked) [Compound 1084], for which the IC50 on SCD5 (humanized yeast strain, 40 h) was 0.027 µM; on SCD1 (humanized yeast strain, 40 h) it was more than 45 µM.

In the case of `CC(C)C(=O)N1CCC(c2noc(-c3cc(F)c4cnn(C5COC5)c4c3)n2)CC1` [Compound 1068], the IC50 is 0.00375 µM against SCD5 (humanized yeast strain, 40 h) and more than 45 µM against SCD1 (humanized yeast strain, 40 h).

In the case of `CC(C)(C)OC(=O)N1CCC(c2nc(-c3ccc4cnn(C5CC(=O)C5)c4c3)no2)CC1` [Compound 787], the IC50 on SCD5 (humanized yeast strain, 40 h) is 0.108 µM; against SCD1 (humanized yeast strain, 40 h) it was 31.5 µM.

Turning to `O=C(C1CC1)N1CCC(c2nc(-c3ccnc(F)c3)no2)CC1` [Compound 1128], the IC50 was more than 45 µM against SCD5 (humanized yeast strain, 40 h) and more than 45 µM against SCD1 (humanized yeast strain, 40 h).

`CC(C)(C)OC(=O)N1CCC(c2cc(-c3cnc4cnn(C5CCOC5)c4c3)on2)CC1` (centres unmarked) [Compound 1233]: the IC50 is 6.54 µM on SCD5 (yeast strain expressing human SCD5 as sole desaturase, Table 8) and 24.7 µM against SCD1 (yeast strain expressing human SCD1 as sole desaturase, Table 8).

On to `O=C(CC1CC1)N1CCC(c2noc(-c3ccnc(C4CCOC4)c3)n2)CC1` (centres unmarked) [Compound 1100], for which the IC50 on SCD5 (humanized yeast strain, 40 h) is 0.738 µM; at SCD1 (humanized yeast strain, 40 h) it was more than 45 µM.

For the molecule `CC(C)C(=O)N1CCC(c2noc(-c3ccnc(C4CCOC4)c3)n2)CC1` (centres unmarked) [Compound 1090], the half-maximal inhibitory concentration (IC50) is 0.54 µM on SCD5 (humanized yeast strain, 40 h) and more than 45 µM against SCD1 (humanized yeast strain, 40 h).

In the case of `Cc1ncc2n1CCN(c1noc(-c3ccc4cnn(C5COC5)c4c3)n1)C2` [Compound 949], the IC50 against SCD5 (humanized yeast strain, 40 h) was more than 45 µM; against SCD1 (humanized yeast strain, 40 h) it was more than 45 µM.

With `CC(C)n1ncc2ccc(-c3noc(C4CCN(C(=O)CN(C)C)CC4)n3)cc21` [Compound 686], the IC50 against SCD5 (setting [1]) and at SCD1 (setting [2]) was more than 45 µM each time.

Take `CC1(CC(=O)N2CCN(c3noc(-c4ccc5cnn(C6COC6)c5c4)n3)CC2)CC1` [Compound 842]: the IC50 is 0.01 µM against SCD5 (humanized yeast strain, 40 h) and more than 45 µM on SCD1 (humanized yeast strain, 40 h).

Turning to `COC(=O)N1CCC(c2noc(-c3ccc4cn(C5CCN(C)C5=O)nc4c3)n2)CC1` (centres unmarked) [Compound 1102], the IC50 on SCD5 (humanized yeast strain, 40 h) was more than 45 µM; on SCD1 (humanized yeast strain, 40 h) it was more than 45 µM.

As to `CC(C)n1ncc2ccc(-c3nc(C4CCN(C(=O)C5(O)CC5)CC4)no3)cc21` [Compound 722], the 50% inhibitory concentration (IC50) on SCD5 (setting [1]) is 1.37 µM; against SCD1 (setting [2]), more than 45 µM.

Regarding `CC(C)(C)OC(=O)N1CCN(c2noc(-c3ccc4cnn(C5CS(=O)(=O)C5)c4c3)n2)CC1` [Compound 997], the IC50 against SCD5 (humanized yeast strain, 40 h) was 0.022 µM; against SCD1 (humanized yeast strain, 40 h), more than 45 µM.

As for `CCC(=O)N1CCCN(c2noc(-c3ccc4cnn(C5COC5)c4c3)n2)CC1` [Compound 962], the concentration for half-maximal inhibition (IC50) is 0.01 µM at SCD5 (humanized yeast strain, 40 h) and more than 45 µM against SCD1 (humanized yeast strain, 40 h).

Consider `CC(C)(C)CC(=O)N1CCC(c2nc(-c3ccc4cnn(C5COC5)c4c3)no2)CC1` [Compound 617], for which the 50% inhibitory concentration (IC50) on SCD5 (setting [1]) was 0.121 µM; against SCD1 (setting [2]) it was more than 45 µM.
